Measured values as given in patent US11000033B2, “Ketone or oxime compound, and herbicide” (NISSAN CHEMICAL CORPORATION, priority 2014, dated 2021).

Legend:
Type in all cases: in vivo
[1] = system: Lolium multiflorum Lam.; experiment: Test Example 5: herbicidal effect by foliage application, plastic box (symbol K); details: 3 weeks after application
Outline: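 Post-emergence spray; diluvial soil (sterilized), ~1.5 cm seed cover; greenhouse 25–30° C; 14-day-old plants; water-diluted emulsion at predetermined dose; visual score at 3 wk post-treatment.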

[2] = system: Leptochloa chinensis; experiment: Test Example 3: herbicidal effect by foliage application, Wagner pot (symbol D); details: for D (Leptochloa chinensis) herbicidal effect grade: Table 24
Outline: (§1)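 Alluvial soil was flooded to a depth of 0.1–0.5 cm, seeded with the weeds and rice, and kept in a greenhouse at 25–30 °C. After 14 days of growth, the foliage received a small-sprayer application of emulsion diluted to the intended rate; injury was rated at 3 weeks.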

[3] = system: Echinochloa crus-galli var. crus-galli; experiment: Test Example 3: herbicidal effect by foliage application, Wagner pot (symbol H); details: for H (Echinochloa crus-galli var. crus-galli) herbicidal effect grade: Table 24
Outline: as §1

[4] = system: soybean; experiment: Test Example 5: effect on crop by foliage application, plastic box (symbol d); details: 3 weeks after application
Outline: (§2)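 Crop seed is sown alongside grass and broadleaf weed species in spots in sterilized diluvial soil, then covered to a depth of about 1.5 cm. Plants grow in a greenhouse kept at 25° C. to 30° C.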

[5] = system: Monochoria vaginalis; experiment: Test Example 2: herbicidal activity, application during weed generation in submerged conditions (symbol C); details: Table 23, grade 0-5 by criteria of Test Example 1
Outline: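 Weeds emerging under flooded conditions were treated with compound formulated as an emulsion and diluted with water to the intended herbicide amount, poured onto the surface of 4 cm standing water. Seeds had been co-sown in alluvial soil; plants grew at 25° C. to 30° C. and were assessed after 3 weeks.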

[6] = system: corn; experiment: Test Example 5: effect on crop by foliage application, plastic box (symbol c); details: 3 weeks after application
Outline: as §2

[7] = system: Abutilon theophrasti; experiment: Test Example 4: herbicidal effect by soil treatment (symbol M); details: for Herbicidal effect grade, M: Abutilon theophrasti: application herbicide amount 320 g/ha
Outline: (§3)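 Seeds were sown in sterilized diluvial soil, covered with about 1.5 cm of soil, and the soil surface was sprayed with a water-diluted emulsion of the compound at a predetermined rate. Plants grew in a greenhouse at 25° C. to 30° C.; effects were scored visually 3 weeks after application.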

[8] = system: Monochoria vaginalis; experiment: Test Example 1: herbicidal activity, application before weed generation in submerged conditions (symbol C)
Outline: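 Steps: alluvial soil flooded to 4 cm; weed seeds sown together; rice seedlings (2.5 leaf) transplanted; diluted emulsion applied to water surface the same day as sowing; plants grown at 25–30 °C in greenhouse; herbicidal effect rated on a 0–5 scale at 3 weeks.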

[9] = system: Avena fatua; experiment: Test Example 4: herbicidal effect by soil treatment (symbol I); details: for Herbicidal effect grade, I: Avena fatua: application herbicide amount 320 g/ha
Outline: as §3

[10] = system: rapeseed; experiment: Test Example 5: effect on crop by foliage application, plastic box (symbol g); details: 3 weeks after application
Outline: as §2

[11] = application herbicide amount 320 g/ha
[12] = application herbicide amount 269 g/ha

Compound	Herbicidal effect grade, C: Monochoria vaginalis [5, 11]	K: Lolium multiflorum Lam., herbicidal effect grade ([1]; 320 g/ha)	D (Leptochloa chinensis) herbicidal effect grade [2, 11]	H (Echinochloa crus-galli var. crus-galli) herbicidal effect grade [3, 11]	d: soybean, effect on crop grade ([4]; 320 g/ha)	c: corn, effect on crop grade ([6]; 320 g/ha)	Herbicidal effect grade, M: Abutilon theophrasti [7]	C (Monochoria vaginalis) herbicidal effect grade [8, 11]	Herbicidal effect grade, I: Avena fatua [9]	g: rapeseed, effect on crop grade ([10]; 320 g/ha)	other results
CCCCCCCCS(=O)(=O)OC1=C(c2c(C)cc(C)cc2C)C(=O)C(CC(C)=NOC)C1 (centres unmarked) [1-107]	0 (Herbicidal ratio of 5% or lower (almost no effect))										K: Lolium multiflorum Lam., herbicidal effect (criteria 0-5) ([1]; 320 g/ha): 5 (Herbicidal ratio of 90% or more (almost completely withered)); herbicidal effect on D (Leptochloa chinensis), grade 0-5 [2, 11]: 5 (Herbicidal ratio of 90% or more (almost completely withered)); herbicidal effect on H (Echinochloa crus-galli var. crus-galli), grade 0-5 [3, 11]: 5 (Herbicidal ratio of 90% or more (almost completely withered)); d: soybean, effect on crop (criteria 0-5) ([4]; 320 g/ha): 3 (Herbicidal ratio of 40% or higher and lower than 70%); c: corn, effect on crop (criteria 0-5) ([6]; 320 g/ha): 2 (Herbicidal ratio of 20% or higher and lower than 40%); M: Abutilon theophrasti, herbicidal effect grade ([7]; 320 g/ha): 0 (Herbicidal ratio of 5% or lower (almost no effect)); Herbicidal effect grade, C: Monochoria vaginalis [8, 11]: 1 (Herbicidal ratio of 5% or higher and lower than 20%); I: Avena fatua, herbicidal effect grade ([9]; 320 g/ha): 0 (Herbicidal ratio of 5% or lower (almost no effect)); g: rapeseed, effect on crop (criteria 0-5) ([10]; 320 g/ha): 4 (Herbicidal ratio of 70% or higher and lower than 90%)
CON=C(C)CC1CC(OC(=O)N(C)C)=C(c2c(C)cc(C)cc2C)C1=O (centres unmarked) [1-108]	1 (Herbicidal ratio of 5% or higher and lower than 20%)										K: Lolium multiflorum Lam., herbicidal effect (criteria 0-5) ([1]; 320 g/ha): 5 (Herbicidal ratio of 90% or more (almost completely withered)); herbicidal effect on D (Leptochloa chinensis), grade 0-5 [2, 11]: 5 (Herbicidal ratio of 90% or more (almost completely withered)); herbicidal effect on H (Echinochloa crus-galli var. crus-galli), grade 0-5 [3, 11]: 5 (Herbicidal ratio of 90% or more (almost completely withered)); d: soybean, effect on crop (criteria 0-5) ([4]; 320 g/ha): 3 (Herbicidal ratio of 40% or higher and lower than 70%); c: corn, effect on crop (criteria 0-5) ([6]; 320 g/ha): 5 (Herbicidal ratio of 90% or more (almost completely withered)); M: Abutilon theophrasti, herbicidal effect grade ([7]; 320 g/ha): 4 (Herbicidal ratio of 70% or higher and lower than 90%); Herbicidal effect grade, C: Monochoria vaginalis [8, 11]: 3 (Herbicidal ratio of 40% or higher and lower than 70%); I: Avena fatua, herbicidal effect grade ([9]; 320 g/ha): 3 (Herbicidal ratio of 40% or higher and lower than 70%); g: rapeseed, effect on crop (criteria 0-5) ([10]; 320 g/ha): 4 (Herbicidal ratio of 70% or higher and lower than 90%)
CC(=O)C(C)C1CC(O)=C(c2c(C)cc(C)cc2C)C1=O (centres unmarked) [2-005]											K: Lolium multiflorum Lam., herbicidal effect grade ([1]; 269 g/ha): 5 (Herbicidal ratio of 90% or more (almost completely withered)); herbicidal effect on D (Leptochloa chinensis), grade 0-5 [2, 12]: 5 (Herbicidal ratio of 90% or more (almost completely withered)); herbicidal effect on H (Echinochloa crus-galli var. crus-galli), grade 0-5 [3, 12]: 5 (Herbicidal ratio of 90% or more (almost completely withered)); d: soybean, effect on crop grade ([4]; 269 g/ha): 0 (Herbicidal ratio of 5% or lower (almost no effect)); Herbicidal effect grade, C: Monochoria vaginalis [5, 12]: 0 (Herbicidal ratio of 5% or lower (almost no effect)); c: corn, effect on crop grade ([6]; 269 g/ha): 3 (Herbicidal ratio of 40% or higher and lower than 70%); M: Abutilon theophrasti, herbicidal effect grade [7, 12]: 0 (Herbicidal ratio of 5% or lower (almost no effect)); Herbicidal effect grade, C: Monochoria vaginalis [8, 12]: 0 (Herbicidal ratio of 5% or lower (almost no effect)); I: Avena fatua, herbicidal effect grade [9, 12]: 0 (Herbicidal ratio of 5% or lower (almost no effect)); g: rapeseed, effect on crop grade ([10]; 269 g/ha): 4 (Herbicidal ratio of 70% or higher and lower than 90%)
Cc1cc(Br)cc(C)c1C1=C(O)CC(CC(=NOCC(F)(F)F)C2CC2)C1=O (centres unmarked) [9-009]	0 (Herbicidal ratio of 5% or lower (almost no effect))	5 (Herbicidal ratio of 90% or more (almost completely withered))	5 (Herbicidal ratio of 90% or more (almost completely withered))	5 (Herbicidal ratio of 90% or more (almost completely withered))	0 (Herbicidal ratio of 5% or lower (almost no effect))	3 (Herbicidal ratio of 40% or higher and lower than 70%)	0 (Herbicidal ratio of 5% or lower (almost no effect))	0 (Herbicidal ratio of 5% or lower (almost no effect))	0 (Herbicidal ratio of 5% or lower (almost no effect))	3 (Herbicidal ratio of 40% or higher and lower than 70%)	
CC#Cc1cc(C)c(C2=C(OC(=O)COc3ccccc3)CC(CC(C)=NOCC(F)(F)F)C2=O)c(C)c1 (centres unmarked) [9-013]	3 (Herbicidal ratio of 40% or higher and lower than 70%)	5 (Herbicidal ratio of 90% or more (almost completely withered))	5 (Herbicidal ratio of 90% or more (almost completely withered))	5 (Herbicidal ratio of 90% or more (almost completely withered))	0 (Herbicidal ratio of 5% or lower (almost no effect))	5 (Herbicidal ratio of 90% or more (almost completely withered))	3 (Herbicidal ratio of 40% or higher and lower than 70%)	1 (Herbicidal ratio of 5% or higher and lower than 20%)	5 (Herbicidal ratio of 90% or more (almost completely withered))	4 (Herbicidal ratio of 70% or higher and lower than 90%)	
COCCON=C(C)CC1CC(O)=C(c2c(C)cc(-n3cc(Cl)cn3)cc2C)C1=O (centres unmarked) [9-016]	1 (Herbicidal ratio of 5% or higher and lower than 20%)	5 (Herbicidal ratio of 90% or more (almost completely withered))	5 (Herbicidal ratio of 90% or more (almost completely withered))	5 (Herbicidal ratio of 90% or more (almost completely withered))	3 (Herbicidal ratio of 40% or higher and lower than 70%)	5 (Herbicidal ratio of 90% or more (almost completely withered))	0 (Herbicidal ratio of 5% or lower (almost no effect))	2 (Herbicidal ratio of 20% or higher and lower than 40%)	2 (Herbicidal ratio of 20% or higher and lower than 40%)	3 (Herbicidal ratio of 40% or higher and lower than 70%)	
COCCON=C(C)CC1CC(O)=C(c2c(C)cc(Br)cc2C)C1=O (centres unmarked) [9-017]	0 (Herbicidal ratio of 5% or lower (almost no effect))	5 (Herbicidal ratio of 90% or more (almost completely withered))	5 (Herbicidal ratio of 90% or more (almost completely withered))	5 (Herbicidal ratio of 90% or more (almost completely withered))	0 (Herbicidal ratio of 5% or lower (almost no effect))	5 (Herbicidal ratio of 90% or more (almost completely withered))	0 (Herbicidal ratio of 5% or lower (almost no effect))	0 (Herbicidal ratio of 5% or lower (almost no effect))	0 (Herbicidal ratio of 5% or lower (almost no effect))	3 (Herbicidal ratio of 40% or higher and lower than 70%)	
COCCON=C(CC1CC(O)=C(c2c(C)cc(Br)cc2C)C1=O)C1CC1 (centres unmarked) [9-019]	0 (Herbicidal ratio of 5% or lower (almost no effect))	5 (Herbicidal ratio of 90% or more (almost completely withered))	5 (Herbicidal ratio of 90% or more (almost completely withered))	5 (Herbicidal ratio of 90% or more (almost completely withered))	0 (Herbicidal ratio of 5% or lower (almost no effect))	5 (Herbicidal ratio of 90% or more (almost completely withered))	0 (Herbicidal ratio of 5% or lower (almost no effect))	0 (Herbicidal ratio of 5% or lower (almost no effect))	0 (Herbicidal ratio of 5% or lower (almost no effect))	1 (Herbicidal ratio of 5% or higher and lower than 20%)	
